Test results published in ChEMBL document CHEMBL3792317, “Novel tetrazoloquinoline-rhodanine conjugates: Highly efficient synthesis and biological evaluation” (Bioorg Med Chem Lett, 2016).
Converted amounts (≈) assume the structure as drawn.

Key:
[1] = (§1) Cytotoxicity against human HeLa cells after 48 hrs by MTT assay; type: cell-based; conditions: HeLa cells
HeLa = test: as §1; type: cell-based; conditions: hela, 48 h
[2] = Cytotoxicity against human PANC1 cells after 48 hrs by MTT assay; type: cell-based, PANC-1; conditions: for GI50 at 48 h: PANC1 cells; for GI90: panc-1, 48 h
[3] = (§2) Cytotoxicity against human A549 cells after 48 hrs by MTT assay; type: cell-based; conditions: A549 cells
A549 = test: as §2; type: cell-based; conditions: a549, 48 h
[4] = Cytotoxicity against human THP1 cells after 48 hrs by MTT assay; type: cell-based, THP-1; conditions: for GI50 at 48 h: THP1 cells; for GI90: thp-1, 48 h
[5] = tested on: Mycobacterium tuberculosis; test: Antitubercular activity against Mycobacterium tuberculosis H37Ra ATCC 25177 incubated for 40 mins by XTT Reduction Menadione Assay; type: functional; conditions: H37Ra ATCC 25177, 40 min
[6] = Antitubercular activity against Mycobacterium bovis BCG ATCC 35743 incubated for 40 mins by XTT Reduction Menadione Assay; type: functional, Mycobacterium bovis BCG str. ATCC 35743; conditions: Mycobacterium tuberculosis variant bovis BCG, ATCC 35743, 40 min
Candida albicans = test: Antifungal activity against Candida albicans NCIM 3471 after 48 hrs by agar cup plate method; type: functional; conditions: NCIM 3471, 48 h
Fusarium oxysporum = test: Antifungal activity against Fusarium oxysporum NCIM 1332 after 48 hrs by agar cup plate method; type: functional; conditions: NCIM 1332, 48 h
Aspergillus flavus = test: Antifungal activity against Aspergillus flavus NCIM 539 after 48 hrs by agar cup plate method; type: functional; conditions: NCIM 539, 48 h
Aspergillus niger = test: Antifungal activity against Aspergillus niger NCIM 1196 after 48 hrs by agar cup plate method; type: functional; conditions: NCIM 1196, 48 h
Cryptococcus neoformans = test: Antifungal activity against Cryptococcus neoformans NCIM 576 after 48 hrs by agar cup plate method; type: functional; conditions: NCIM 576, 48 h
[7] = tested on: Mycobacterium tuberculosis; test: Antitubercular activity against Mycobacterium tuberculosis H37Ra ATCC 25177 at 30 ug/ml incubated for 40 mins by XTT Reduction Menadione Assay; type: functional; conditions: H37Ra ATCC 25177, 40 min, read-out: GI
[8] = tested on: Mycobacterium tuberculosis; test: Antitubercular activity against Mycobacterium tuberculosis H37Ra ATCC 25177 at 10 ug/ml incubated for 40 mins by XTT Reduction Menadione Assay; type: functional; conditions: H37Ra ATCC 25177, 40 min, read-out: GI
[9] = tested on: Mycobacterium tuberculosis; test: Antitubercular activity against Mycobacterium tuberculosis H37Ra ATCC 25177 at 3 ug/ml incubated for 40 mins by XTT Reduction Menadione Assay; type: functional; conditions: H37Ra ATCC 25177, 40 min, read-out: GI
[10] = tested on: Mycobacterium bovis BCG str. ATCC 35743; test: Antitubercular activity against dormant Mycobacterium bovis BCG ATCC 35743 at 30 ug/ml incubated for 40 mins by XTT Reduction Menadione Assay; type: functional
[11] = tested on: Mycobacterium bovis BCG str. ATCC 35743; test: Antitubercular activity against dormant Mycobacterium bovis BCG ATCC 35743 at 10 ug/ml incubated for 40 mins by XTT Reduction Menadione Assay; type: functional
[12] = tested on: Mycobacterium bovis BCG str. ATCC 35743; test: Antitubercular activity against dormant Mycobacterium bovis BCG ATCC 35743 at 3 ug/ml incubated for 40 mins by XTT Reduction Menadione Assay; type: functional
[13] = tested on: Mycobacterium tuberculosis; test: Antitubercular activity against dormant Mycobacterium tuberculosis H37Ra ATCC 25177 incubated for 40 mins by XTT Reduction Menadione Assay; type: functional; conditions: H37Ra ATCC 25177, 40 min
[14] = tested on: Mycobacterium tuberculosis; test: Antitubercular activity against active Mycobacterium tuberculosis H37Ra ATCC 25177 incubated for 40 mins by XTT Reduction Menadione Assay; type: functional; conditions: H37Ra ATCC 25177, 40 min
Escherichia coli = test: Antibacterial activity against Escherichia coli after 18 hrs by broth dilution method; type: functional
Pseudomonas fluorescens = test: Antibacterial activity against Pseudomonas fluorescens after 18 hrs by broth dilution method; type: functional
Staphylococcus aureus = test: Antibacterial activity against Staphylococcus aureus after 18 hrs by broth dilution method; type: functional
Bacillus subtilis = test: Antibacterial activity against Bacillus subtilis after 18 hrs by broth dilution method; type: functional

Row | Compound | GI50 at 48 h [1] [µg/mL] | GI90 (HeLa) [µg/mL] | GI50 at 48 h [2] [µg/mL] | GI90 [2] [µg/mL] | GI50 at 48 h [3] [µg/mL] | GI90 (A549) [µg/mL] | GI50 at 48 h [4] [µg/mL] | MIC [5] [µg/mL] | MIC [6] [µg/mL] | MIC (Candida albicans) [µg/mL] | MIC (Fusarium oxysporum) [µg/mL] | MIC (Aspergillus flavus) [µg/mL] | MIC (Aspergillus niger) [µg/mL] | MIC (Cryptococcus neoformans) [µg/mL] | inhibition of growth at 30 µg/mL [7] [%] | inhibition of growth at 10 µg/mL [8] [%] | inhibition of growth at 3 µg/mL [9] [%] | growth inhibition (GI) [10] [%] | growth inhibition (GI) [11] [%] | growth inhibition (GI) [12] [%] | other results
1 | CC(=O)O[C@H]1C(=O)[C@@]2(C)[C@H]([C@H](OC(=O)c3ccccc3)[C@]3(O)C[C@H](OC(=O)[C@H](O)[C@@H](NC(=O)c4ccccc4)c4ccccc4)C(C)=C1C3(C)C)[C@]1(OC(C)=O)CO[C@@H]1C[C@@H]2O [PACLITAXEL] | 0.0048 (≈ 0.00562 µM) | 0.075 (≈ 0.0878 µM) | 0.128 (≈ 0.15 µM) | 5.715 (≈ 6.69 µM) | < 0.004 | 0.038 (≈ 0.0445 µM) | 0.137 (≈ 0.161 µM) |  |  |  |  |  |  |  |  |  |  |  |  |  | GI90 [4]: 5.814 µg/mL (≈ 6.81 µM)
2 | COc1ccc2c(c1)cc(/C=C1\SC(=S)N(CC(=O)O)C1=O)c1nnnn12 |  |  |  |  |  |  |  | > 250 | > 250 | 50 (≈ 125 µM) | 100 (≈ 249 µM) | 150 (≈ 374 µM) | 50 (≈ 125 µM) | 150 (≈ 374 µM) | 38 | 0.62 | 7.3 | 49.8 | 32.1 | -9.36 | 
3 | Cc1ccc2c(c1)cc(/C=C1\SC(=S)N(CC(=O)O)C1=O)c1nnnn12 | > 100 | > 100 | > 100 | > 100 | > 100 | > 100 | > 100 | 88.1 (≈ 229 µM) | 84.4 (≈ 219 µM) | 25 (≈ 64.9 µM) | 100 (≈ 259 µM) | 50 (≈ 130 µM) | 150 (≈ 389 µM) | 100 (≈ 259 µM) | 36.7 | 16.3 | 17.5 | -14.8 | 35.3 | 20.2 | IC90 [13]: 88.1 µg/mL (≈ 229 µM); IC90 [14]: 49.2 µg/mL (≈ 128 µM); GI90 [4]: > 100 µg/mL
4 | COc1ccc2cc(/C=C3\SC(=S)N(CCC(=O)O)C3=O)c3nnnn3c2c1 |  |  |  |  |  |  |  | > 250 | > 250 | 100 (≈ 241 µM) | 150 (≈ 361 µM) | 125 (≈ 301 µM) | 50 (≈ 120 µM) | 150 (≈ 361 µM) | 12.5 | 21.7 | 0.02 | 19 | 20.5 | 18.8 | 
5 | Clc1ccc(COC(Cn2ccnc2)c2ccc(Cl)cc2Cl)c(Cl)c1 (stereo unspecified) [MICONAZOLE] |  |  |  |  |  |  |  |  |  | 25 (≈ 60.1 µM) | 25 (≈ 60.1 µM) | 12.5 (≈ 30 µM) | 25 (≈ 60.1 µM) | 25 (≈ 60.1 µM) |  |  |  |  |  |  | 
6 | Cc1ccc2c(c1)cc(/C=C1\SC(=S)N(CCC(=O)O)C1=O)c1nnnn12 |  |  |  |  |  |  |  | 50.5 (≈ 126 µM) | 51.3 (≈ 128 µM) | 100 (≈ 250 µM) | 75 (≈ 188 µM) | 75 (≈ 188 µM) | 25 (≈ 62.6 µM) | 50 (≈ 125 µM) | 44.7 | 31.6 | 1.75 | 46.4 | 13.7 | 16.2 | 
7 | Cc1cccc2cc(/C=C3\SC(=S)NC3=O)c3nnnn3c12 | > 100 | > 100 | > 100 | > 100 | > 100 | > 100 | > 100 | 148 (≈ 453 µM) | > 250 | 25 (≈ 76.4 µM) | 100 (≈ 305 µM) | 50 (≈ 153 µM) | 25 (≈ 76.4 µM) | 75 (≈ 229 µM) | 40.3 | 16.7 | -9.62 | 82.4 | 63.3 | 64 | IC90 [13]: 148 µg/mL (≈ 453 µM); IC90 [14]: > 250 µg/mL; MIC (Escherichia coli): 173 µg/mL (≈ 529 µM); MIC (Pseudomonas fluorescens): 148 µg/mL (≈ 451 µM); MIC (Staphylococcus aureus): 127 µg/mL (≈ 388 µM); MIC (Bacillus subtilis): 88.8 µg/mL (≈ 271 µM); GI90 [4]: > 100 µg/mL
8 | NC[C@H]1O[C@H](O[C@H]2[C@H](O)[C@@H](O[C@H]3O[C@H](CO)[C@@H](O)[C@H](N)[C@H]3O)[C@H](N)C[C@@H]2N)[C@H](O)[C@@H](O)[C@@H]1O [KANAMYCIN] |  |  |  |  |  |  |  |  |  |  |  |  |  |  |  |  |  |  |  |  | MIC (Escherichia coli): 1.62 µg/mL (≈ 3.34 µM); MIC (Pseudomonas fluorescens): 0.49 µg/mL (≈ 1.01 µM); MIC (Staphylococcus aureus): > 30 µg/mL; MIC (Bacillus subtilis): 1.35 µg/mL (≈ 2.79 µM)
